Experimental data reported in the CheMixHub viscosity set.
± gives the uncertainty stated by the source.

Test: xn = mol fraction of the nth substance listed

Oc1ccccc1Cl + CCOCCO
viscosity (303.15 K, 101 kPa, x1 = 0.0961): 2.185 ± 0.05 mPa·s | viscosity (303.15 K, 101 kPa, x1 = 0.193): 2.825 ± 0.064 mPa·s | viscosity (303.15 K, 101 kPa, x1 = 0.2907): 3.45 ± 0.077 mPa·s | viscosity (303.15 K, 101 kPa, x1 = 0.3894): 3.996 ± 0.088 mPa·s | viscosity (303.15 K, 101 kPa, x1 = 0.4889): 4.376 ± 0.096 mPa·s | viscosity (303.15 K, 101 kPa, x1 = 0.5893): 4.53 ± 0.099 mPa·s | viscosity (303.15 K, 101 kPa, x1 = 0.6906): 4.41 ± 0.097 mPa·s | viscosity (303.15 K, 101 kPa, x1 = 0.7928): 4.05 ± 0.089 mPa·s | viscosity (303.15 K, 101 kPa, x1 = 0.8959): 3.486 ± 0.077 mPa·s | viscosity (308.15 K, 101 kPa, x1 = 0.0961): 1.948 ± 0.045 mPa·s | viscosity (308.15 K, 101 kPa, x1 = 0.193): 2.453 ± 0.056 mPa·s | viscosity (308.15 K, 101 kPa, x1 = 0.2907): 2.949 ± 0.066 mPa·s | viscosity (308.15 K, 101 kPa, x1 = 0.3894): 3.365 ± 0.075 mPa·s | viscosity (308.15 K, 101 kPa, x1 = 0.4889): 3.66 ± 0.081 mPa·s | viscosity (308.15 K, 101 kPa, x1 = 0.5893): 3.784 ± 0.084 mPa·s | viscosity (308.15 K, 101 kPa, x1 = 0.6906): 3.706 ± 0.082 mPa·s | viscosity (308.15 K, 101 kPa, x1 = 0.7928): 3.43 ± 0.076 mPa·s | viscosity (308.15 K, 101 kPa, x1 = 0.8959): 3.005 ± 0.067 mPa·s | viscosity (313.15 K, 101 kPa, x1 = 0.0961): 1.725 ± 0.04 mPa·s | viscosity (313.15 K, 101 kPa, x1 = 0.193): 2.133 ± 0.049 mPa·s | viscosity (313.15 K, 101 kPa, x1 = 0.2907): 2.524 ± 0.057 mPa·s | viscosity (313.15 K, 101 kPa, x1 = 0.3894): 2.868 ± 0.064 mPa·s | viscosity (313.15 K, 101 kPa, x1 = 0.4889): 3.106 ± 0.069 mPa·s | viscosity (313.15 K, 101 kPa, x1 = 0.5893): 3.215 ± 0.072 mPa·s | viscosity (313.15 K, 101 kPa, x1 = 0.6906): 3.17 ± 0.071 mPa·s | viscosity (313.15 K, 101 kPa, x1 = 0.7928): 2.974 ± 0.067 mPa·s | viscosity (313.15 K, 101 kPa, x1 = 0.8959): 2.664 ± 0.06 mPa·s | viscosity (318.15 K, 101 kPa, x1 = 0.0961): 1.567 ± 0.037 mPa·s | viscosity (318.15 K, 101 kPa, x1 = 0.193): 1.887 ± 0.044 mPa·s | viscosity (318.15 K, 101 kPa, x1 = 0.2907): 2.19 ± 0.05 mPa·s | viscosity (318.15 K, 101 kPa, x1 = 0.3894): 2.449 ± 0.056 mPa·s | viscosity (318.15 K, 101 kPa, x1 = 0.4889): 2.63 ± 0.059 mPa·s | viscosity (318.15 K, 101 kPa, x1 = 0.5893): 2.724 ± 0.061 mPa·s | viscosity (318.15 K, 101 kPa, x1 = 0.6906): 2.702 ± 0.061 mPa·s | viscosity (318.15 K, 101 kPa, x1 = 0.7928): 2.57 ± 0.058 mPa·s | viscosity (318.15 K, 101 kPa, x1 = 0.8959): 2.341 ± 0.053 mPa·s

C=COC(C)=O + CCc1ccccc1
viscosity (303.15 K, 101 kPa, x1 = 0.1246): 0.556 ± 0.007 mPa·s | viscosity (303.15 K, 101 kPa, x1 = 0.2478): 0.523 ± 0.007 mPa·s | viscosity (303.15 K, 101 kPa, x1 = 0.3516): 0.499 ± 0.006 mPa·s | viscosity (303.15 K, 101 kPa, x1 = 0.4658): 0.475 ± 0.006 mPa·s | viscosity (303.15 K, 101 kPa, x1 = 0.576): 0.453 ± 0.006 mPa·s | viscosity (303.15 K, 101 kPa, x1 = 0.6587): 0.439 ± 0.006 mPa·s | viscosity (303.15 K, 101 kPa, x1 = 0.7601): 0.422 ± 0.006 mPa·s | viscosity (303.15 K, 101 kPa, x1 = 0.8593): 0.408 ± 0.005 mPa·s | viscosity (303.15 K, 101 kPa, x1 = 0.9467): 0.397 ± 0.005 mPa·s | viscosity (313.15 K, 101 kPa, x1 = 0.1246): 0.506 ± 0.007 mPa·s | viscosity (313.15 K, 101 kPa, x1 = 0.2478): 0.473 ± 0.006 mPa·s | viscosity (313.15 K, 101 kPa, x1 = 0.3516): 0.45 ± 0.006 mPa·s | viscosity (313.15 K, 101 kPa, x1 = 0.4658): 0.426 ± 0.006 mPa·s | viscosity (313.15 K, 101 kPa, x1 = 0.576): 0.407 ± 0.005 mPa·s | viscosity (313.15 K, 101 kPa, x1 = 0.6587): 0.394 ± 0.005 mPa·s | viscosity (313.15 K, 101 kPa, x1 = 0.7601): 0.379 ± 0.005 mPa·s | viscosity (313.15 K, 101 kPa, x1 = 0.8593): 0.364 ± 0.005 mPa·s | viscosity (313.15 K, 101 kPa, x1 = 0.9467): 0.352 ± 0.005 mPa·s

CC(C)c1ccccc1 + CCc1ccccc1
viscosity (293.15 K, 101.33 kPa, x1 = 0.4675): 0.696 ± 0.004 mPa·s | viscosity (313.15 K, 101.33 kPa, x1 = 0.4675): 0.545 ± 0.003 mPa·s

CCCCOC(C)=O + CN1CCCC1=O
viscosity (303.15 K, 101 kPa, x2 = 0.1327): 0.801 ± 0.017 mPa·s | viscosity (303.15 K, 101 kPa, x2 = 0.256): 0.941 ± 0.02 mPa·s | viscosity (303.15 K, 101 kPa, x2 = 0.3711): 1.061 ± 0.022 mPa·s | viscosity (303.15 K, 101 kPa, x2 = 0.4785): 1.165 ± 0.024 mPa·s | viscosity (303.15 K, 101 kPa, x2 = 0.5792): 1.258 ± 0.026 mPa·s | viscosity (303.15 K, 101 kPa, x2 = 0.6737): 1.339 ± 0.028 mPa·s | viscosity (303.15 K, 101 kPa, x2 = 0.7626): 1.405 ± 0.029 mPa·s | viscosity (303.15 K, 101 kPa, x2 = 0.8463): 1.463 ± 0.03 mPa·s | viscosity (303.15 K, 101 kPa, x2 = 0.9253): 1.512 ± 0.031 mPa·s | viscosity (308.15 K, 101 kPa, x2 = 0.1327): 0.737 ± 0.015 mPa·s | viscosity (308.15 K, 101 kPa, x2 = 0.256): 0.861 ± 0.018 mPa·s | viscosity (308.15 K, 101 kPa, x2 = 0.3711): 0.968 ± 0.02 mPa·s | viscosity (308.15 K, 101 kPa, x2 = 0.4785): 1.059 ± 0.022 mPa·s | viscosity (308.15 K, 101 kPa, x2 = 0.5792): 1.143 ± 0.024 mPa·s | viscosity (308.15 K, 101 kPa, x2 = 0.6737): 1.213 ± 0.025 mPa·s | viscosity (308.15 K, 101 kPa, x2 = 0.7626): 1.273 ± 0.026 mPa·s | viscosity (308.15 K, 101 kPa, x2 = 0.8463): 1.325 ± 0.028 mPa·s | viscosity (308.15 K, 101 kPa, x2 = 0.9253): 1.37 ± 0.028 mPa·s | viscosity (313.15 K, 101 kPa, x2 = 0.1327): 0.69 ± 0.014 mPa·s | viscosity (313.15 K, 101 kPa, x2 = 0.256): 0.805 ± 0.017 mPa·s | viscosity (313.15 K, 101 kPa, x2 = 0.3711): 0.905 ± 0.019 mPa·s | viscosity (313.15 K, 101 kPa, x2 = 0.4785): 0.991 ± 0.021 mPa·s | viscosity (313.15 K, 101 kPa, x2 = 0.5792): 1.065 ± 0.022 mPa·s | viscosity (313.15 K, 101 kPa, x2 = 0.6737): 1.13 ± 0.024 mPa·s | viscosity (313.15 K, 101 kPa, x2 = 0.7626): 1.187 ± 0.025 mPa·s | viscosity (313.15 K, 101 kPa, x2 = 0.8463): 1.236 ± 0.026 mPa·s | viscosity (313.15 K, 101 kPa, x2 = 0.9253): 1.28 ± 0.027 mPa·s | viscosity (318.15 K, 101 kPa, x2 = 0.1327): 0.642 ± 0.013 mPa·s | viscosity (318.15 K, 101 kPa, x2 = 0.256): 0.745 ± 0.016 mPa·s | viscosity (318.15 K, 101 kPa, x2 = 0.3711): 0.834 ± 0.017 mPa·s | viscosity (318.15 K, 101 kPa, x2 = 0.4785): 0.911 ± 0.019 mPa·s | viscosity (318.15 K, 101 kPa, x2 = 0.5792): 0.978 ± 0.02 mPa·s | viscosity (318.15 K, 101 kPa, x2 = 0.6737): 1.037 ± 0.022 mPa·s | viscosity (318.15 K, 101 kPa, x2 = 0.7626): 1.088 ± 0.023 mPa·s | viscosity (318.15 K, 101 kPa, x2 = 0.8463): 1.131 ± 0.024 mPa·s | viscosity (318.15 K, 101 kPa, x2 = 0.9253): 1.173 ± 0.024 mPa·s

Oc1ccccc1Cl + CN(C)C=O
viscosity (303.15 K, 101 kPa, x1 = 0.3286): 3.443 ± 1.5 mPa·s
